In data set [1] the test system is Mus musculus. The data set can be described thus: Effect on memory formation in Albino mouse assessed as memory of negative experience by measuring dark room entry at […], po administered through intragastric tube measured after 7 days by conditioned avoidance test. It is filed as functional, organism-based. The note with it: time 7.0 day.
Data set [2] relates to Mus musculus. The data set can be described thus: Anxiolytic activity in Albino mouse assessed as increase in number of central zone crossing at […], po administered through intragastric tube measured after 40 mins by elevated plus maze test. Type of data set: functional, organism-based.
Data set [3] concerns Mus musculus. The data set can be described thus: Anxiolytic activity in Albino mouse assessed as increase in motor activity by measuring increase in number of square crossing at […], po administered through intragastric tube measured after 40 mins by open field test. Type of data set: functional, organism-based.
Data set [4] has as its system Mus musculus. The data set can be described thus: Nootropic activity in Albino mouse assessed as quick escape from restricting factor in aversive environment at […], po administered through intragastric tube measured after 7 days by conditioned avoidance test. It is filed as functional, organism-based. The note with it: time 7.0 day.
In data set [5] the test system is Mus musculus. The data set can be described thus: Anxiolytic activity in Albino mouse assessed as increase in number of open arm entries at […], po administered through intragastric tube measured after 40 mins by elevated plus maze test. It is filed as functional, organism-based.
Data set [6] concerns Mus musculus. The data set can be described thus: Anxiolytic activity in Albino mouse assessed as rapid open arm entry at […], po administered through intragastric tube measured after 40 mins by elevated plus maze test. It is filed as functional, organism-based.
Data set [7] deals with Mus musculus. The data set can be described thus: Anxiolytic activity in Albino mouse assessed as increase in time spent in open arm entries at […], po administered through intragastric tube measured after 40 mins by elevated plus maze test. Type of data set: functional, organism-based.
Data set [8] can be described thus: Toxicity in po dosed female Albino mouse. Type of data set: organism-based. The conditions noted are these: in vivo.
In data set [9] the test system is Mus musculus. The data set can be described thus: Antidepressant activity in Albino mouse with social depression assessed as increase in time of interaction with partner mouse at […], po administered through intragastric tube measured after 40 mins by social interaction test. It is filed as functional, organism-based.
Data set [10] has as its system Mus musculus. The data set can be described thus: Antidepressant activity in Albino mouse with social depression assessed as increase in interaction frequency with partner mouse at […], po administered through intragastric tube measured after 40 mins by social interaction test. Type of data set: functional, organism-based.

Several values for one entry are separate records, joined by “and”; a condition that tells them apart may be missing. Identical values can stand only once. Activity calls are given as the source filed them. The calls are words filed in the database; no cut-off is given here.

18 compounds from ChEMBL document CHEMBL5344408, “Pyrimidine thioethers: A novel class of antidepressant agents, endowed with anxiolytic, performance enhancing and nootropic activity” (Eur J Med Chem, 2023) can be followed below.

For `CSCCSc1nc(O)c(C(C)C)c(=O)[nH]1`, the outcome in the data set with Mus musculus [1], in the data set on Mus musculus [2], with Mus musculus [3], in the data set on Mus musculus [5] and with Mus musculus [6] was Active. For the same compound, in the data set on Mus musculus [4], the outcome was inactive.

As for `CC(C)c1c(O)nc(SCCN(C)C)nc1O`, the outcome in the data set with Mus musculus [1], in the data set with Mus musculus [2], in the data set on Mus musculus [7], in the data set on Mus musculus [5] and in the data set on Mus musculus [6] was Active. Moreover, the outcome with Mus musculus [4] was inactive.

For the compound `CC(C)CCc1c(O)nc(SCCN2CCCC2)[nH]c1=O`, the outcome with Mus musculus [1] and in the data set on Mus musculus [6] was inactive.

As to `CCN(CC)CCSc1nc(O)c(CCSC)c(=O)[nH]1`, the result in the data set with Mus musculus [1] and in the data set on Mus musculus [6] was inactive. In addition, the outcome in the data set with Mus musculus [3] and with Mus musculus [4] was Active.

In the case of `CC(C)CCc1c(O)nc(SCCN2CCCCC2)[nH]c1=O`, the outcome in the data set with Mus musculus [1] and in the data set on Mus musculus [6] was inactive. The outcome in the data set on Mus musculus [4] was Active.

Take `CC(C)CCc1c(O)nc(SCCN(C)C)[nH]c1=O`: the result in the data set on Mus musculus [1] and in the data set with Mus musculus [4] was inactive.

As to `CCCC(C)c1c(O)nc(SCCN(C)C)[nH]c1=O` (stereo unspecified), the result in the data set on Mus musculus [1] was inactive. For the same compound, the outcome with Mus musculus [2], in the data set with Mus musculus [3], with Mus musculus [4], with Mus musculus [7], with Mus musculus [5] and with Mus musculus [6] was Active.

With `CCCC(C)c1c(O)nc(SCCN2CCCC2)[nH]c1=O` (stereo unspecified), the outcome in the data set on Mus musculus [1] and in the data set on Mus musculus [3] was inactive. The result in the data set on Mus musculus [2], in the data set with Mus musculus [7] and in the data set with Mus musculus [5] was Active.

Consider `CCCC(C)c1c(O)nc(SCCN2CCCCC2)[nH]c1=O` (stereo unspecified), for which the outcome in the data set with Mus musculus [1] and with Mus musculus [6] was inactive. In addition, the outcome in the data set with Mus musculus [5] was Active.

On to `CC(C)c1c(O)nc(SCCN2CCCC2)[nH]c1=O.Cl`, for which the outcome in the data set with Mus musculus [1] was inactive. In the data set with Mus musculus [3], the result was Active. Moreover, in [8] (po), the LD50 – broadly, the dose expected to kill half of the subjects tested – was 544 mg kg-1 and 1563 umol/Kg.

`CSCCc1c(O)nc(SCCN(C)C)[nH]c1=O`: the outcome in the data set on Mus musculus [1] and with Mus musculus [3] was inactive. For the same compound, the result with Mus musculus [2] and in the data set on Mus musculus [5] was Active.

On to `CCN(CC)CCSc1nc(O)c(C(C)C)c(O)n1`, for which the result with Mus musculus [1], in the data set on Mus musculus [7] and in the data set with Mus musculus [6] was Active.

In the case of `CCCC(C)c1c(O)nc(SCCN(CC)CC)[nH]c1=O.Cl` (stereo unspecified), the result with Mus musculus [1] and in the data set with Mus musculus [4] was inactive. For the same compound, the result in the data set with Mus musculus [9], in the data set on Mus musculus [2], in the data set on Mus musculus [10], in the data set on Mus musculus [7], in the data set with Mus musculus [5] and with Mus musculus [6] was Active. The LD50 in [8] (female, Albino, read-out: LD50) was 1840 mg/kg and 5720 µmol/kg.

For the compound `CC(C)c1c(O)nc(N2CCSCC2)[nH]c1=O`, the outcome with Mus musculus [1] was inactive. For the same compound, the result with Mus musculus [2], in the data set with Mus musculus [4], in the data set with Mus musculus [7], in the data set with Mus musculus [5] and in the data set with Mus musculus [6] was Active.

With `CC(C)c1c(O)nc(SCCN2CCCCC2)[nH]c1=O`, the outcome in the data set on Mus musculus [1], in the data set on Mus musculus [2], in the data set with Mus musculus [7], with Mus musculus [5] and in the data set on Mus musculus [6] was Active.

On to `CSCCc1c(O)nc(SCCN2CCCC2)[nH]c1=O`, for which the result in the data set with Mus musculus [1] and in the data set on Mus musculus [3] was inactive. Moreover, the result in the data set on Mus musculus [2], in the data set with Mus musculus [7], with Mus musculus [5] and in the data set on Mus musculus [6] was Active.

With `CCN(CC)CCSc1nc(O)c(CCC(C)C)c(=O)[nH]1`, the outcome in the data set on Mus musculus [1] and with Mus musculus [6] was inactive. Moreover, the outcome with Mus musculus [3] was Active.

As for `CSCCc1c(O)nc(SCCN2CCCCC2)[nH]c1=O`, the outcome with Mus musculus [1] and in the data set with Mus musculus [4] was inactive. Moreover, the result in the data set on Mus musculus [2] and with Mus musculus [5] was Active.
